Calls of active or inactive are those of the source. The rule behind the calls is not given here. Non-standard residues stand in square brackets, D forms with d. Residues, ends and D or L forms follow the SMILES beside them. ξ: configuration not given here. *: point of attachment. ξY = NC(Cc1ccc(O)cc1)C(=O)O; Nva = CCC[CH](N)C(=O)O; Cbz = O=C(OCc1ccccc1)*; ξI = CCC(C)C(N)C(=O)O; ξL = CC(C)CC(N)C(=O)O; ξT = CC(O)C(N)C(=O)O; NHNH2 = NN*
Legend:
[1] = Cytotoxicity against human MM1R cells assessed as growth inhibition after 24 hrs by MTT assay; assay type: functional, cell-based; conditions: MM.1R
[2] = target: T1, Proteasome Macropain subunit MB1 (Homo sapiens, UniProt P28074); test: Competitive inhibition of chymotrypsin-like activity of human 20S proteasome using Suc-Leu-Leu-Val-Tyr-AMC as substrate measured for 10 mins by fluorescence assay
T1 sequence (P28074 whole entry): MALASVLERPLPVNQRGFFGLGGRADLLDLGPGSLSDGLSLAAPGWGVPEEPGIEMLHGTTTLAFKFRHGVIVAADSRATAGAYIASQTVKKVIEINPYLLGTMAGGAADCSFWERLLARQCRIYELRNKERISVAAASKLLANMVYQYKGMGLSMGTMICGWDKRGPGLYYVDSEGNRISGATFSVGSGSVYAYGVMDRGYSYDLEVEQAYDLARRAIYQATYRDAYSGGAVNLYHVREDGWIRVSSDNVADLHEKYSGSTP

[3] = Cytotoxicity against human MM1R cells assessed as residual vitality at 100 uM after 24 hrs by MTT assay relative to control; assay type: functional
MM1R [4] = test: Inhibition of proteasome activity in human MM1R cells assessed as increase in total ubiquitin levels at 20 uM after 24 hrs by Western blot method; assay type: cell-based
[5] = target: T2, Proteasome Macropain subunit MB1 (Homo sapiens) (UniProt P28074); test: Inhibition of chymotrypsin-like activity of human 20S proteasome at 50 uM using Suc-Leu-Leu-Val-Tyr-AMC as substrate measured for 10 mins by fluorescence assay relative to control
T2 sequence (whole entry): T1 sequence (P28074 whole entry)

[6] = target: Proteasome Macropain subunit (Homo sapiens) (UniProt P49721); test: Inhibition of trypsin-like activity of human 20S proteasome at 50 uM using Boc-Leu-Arg-Arg-AMC as substrate measured for 10 mins by fluorescence assay relative to control
[7] = target: T3, Proteasome component C5 (Homo sapiens) (UniProt P20618); test: Inhibition of post-glutamyl peptide hydrolyzing activity of human 20S proteasome at 50 uM using Cbz-Leu-Leu-Glu-AMC as substrate measured for 10 mins by fluorescence assay relative to control
T3 sequence (whole entry): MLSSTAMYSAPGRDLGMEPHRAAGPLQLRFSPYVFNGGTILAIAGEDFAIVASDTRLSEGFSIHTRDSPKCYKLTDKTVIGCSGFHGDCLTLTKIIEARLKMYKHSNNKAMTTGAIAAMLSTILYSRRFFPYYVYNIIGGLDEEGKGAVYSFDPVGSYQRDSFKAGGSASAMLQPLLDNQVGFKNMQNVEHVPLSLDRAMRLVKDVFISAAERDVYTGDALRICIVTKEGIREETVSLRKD

[8] = target: T2, Proteasome Macropain subunit MB1 (Homo sapiens); test: Time-dependent inhibition of chymotrypsin-like activity of human 20S proteasome using Suc-Leu-Leu-Val-Tyr-AMC as substrate at 10 to 100 uM by fluorescence assay
MM1R [9] = test: Inhibition of proteasome activity in human MM1R cells assessed as increase in total ubiquitin levels at 10 uM after 24 hrs by Western blot method; assay type: cell-based

Sequence of Proteasome Macropain subunit (Homo sapiens) (P49721 whole entry): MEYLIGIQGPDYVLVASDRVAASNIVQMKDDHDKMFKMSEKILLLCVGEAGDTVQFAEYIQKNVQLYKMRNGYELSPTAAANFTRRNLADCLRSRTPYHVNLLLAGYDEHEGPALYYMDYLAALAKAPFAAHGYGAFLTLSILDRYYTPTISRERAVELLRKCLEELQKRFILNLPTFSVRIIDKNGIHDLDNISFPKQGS

Row | inhibition [5] [%] | inhibition [6] [%] | Compound | further results
1 | 43 | – | CC(=O)NC(Cc1ccccc1)C(=O)Nc1ccc(C)cc1 (centres undefined) | –
2 | 34 | – | CC(=O)NC(Cc1ccccc1)C(=O)Nc1ccc(S(N)(=O)=O)cc1 (centres undefined) | –
3 | 49 | – | CC(C)(C)OC(=O)Cn1ncn(NC(=O)Cc2ccccc2)c1=O | –
4 | 34 | – | CC(C)C[C@H](NC(=O)c1cnc2ccccc2n1)C(=O)O | –
5 | 21 | – | CC(C)[C@H](NC(=O)[C@H](Cc1ccc(O)cc1)NC(=O)OCc1ccccc1)C(=O)O | –
6 | 49 | – | CCOC(=O)C(NC(=O)Cc1ccccc1)C(=O)OCC | –
7 | 13 | – | CCOC(=O)c1ccc(NC(=O)CSc2nc3ccccc3o2)cc1 | –
8 | 33 | – | CNC(Cc1ccc(OCc2ccccc2)cc1)C(=O)NC(CO)CC(C)C (centres undefined) | –
9 | 24 | – | C[C@H](NC(=O)OCc1ccccc1)C(=O)N[C@@H](Cc1ccccc1)C(N)=O | –
10 | 21 | 3 | NC(=O)C(NC(=O)c1ccccc1)SCc1ccccc1 (centres undefined) | –
11 | 33 | – | NC(=O)C[C@H](NC(=O)OCC1c2ccccc2-c2ccccc21)C(=O)O | –
12 | 33 | 11 | NS(=O)(=O)c1ccc(NC(=O)/C=C/c2ccccc2)cc1 | –
13 | 43 | – | O=C(CC(=O)c1cccnc1)NC(=O)c1ccccc1 | –
14 | 12 | – | O=C(CNC(=O)c1ccccc1)OC(C(=O)O)c1ccc(F)cc1 (centres undefined) | –
15 | 48 | 74 | O=C(Nc1ccc2nc(O)cc(C(=O)O)c2c1)Oc1ccccc1 | –
16 | 60 | – | O=C(Nc1ccccc1C(=O)NCC1CC1)c1cccs1 | –
17 | 60 | – | O=C(O)[C@H](Cc1ccc(O)cc1)NS(=O)(=O)Cc1ccccc1 | –
18 | 54 | 1 | O=C(O)c1ccc(NCn2c(=S)[nH]c3ccccc32)cc1O | –
19 | 17 | – | CC(C)C[C@H](NC(=O)OCc1ccccc1)C(=O)N[C@@H](Cc1ccc(O)cc1)C(N)=O (Cbz-Leu-Tyr-NH2) | –
20 | 11 | 23 | CC(C)[C@H](NC(=O)[C@H](Cc1ccc(O)cc1)NC(=O)OCc1ccccc1)C(N)=O (Cbz-Tyr-Val-NH2) | –
21 | 18 | 33 | CCC[C@H](NC(=O)OCc1ccccc1)C(=O)N[C@@H](Cc1ccc(O)cc1)C(N)=O (Cbz-[Nva]-Tyr-NH2) | –
22 | 17 | – | CCCC(NC(=O)OCc1ccccc1)C(=O)NC(Cc1ccc(O)cc1)C(N)=O (centres undefined) (Cbz-[Nva]-Tyr-NH2; configuration not given here) | –
23 | 34 | 11 | CCC(C)C(NC(=O)OCc1ccccc1)C(=O)N[C@@H](Cc1ccc(O)cc1)C(=O)O (some centres undefined) (Cbz-[ξI]-Tyr-OH) | –
24 | 8 | – | CC(C)CC(NC(=O)OCc1ccccc1)C(=O)N[C@@H](Cc1ccc(O)cc1)C(=O)O (some centres undefined) (Cbz-[ξL]-Tyr-OH) | –

More lines, now with the values behind:

Row | Compound | inhibition [5] [%] | inhibition [6] [%] | further results
25 | CN/C(=N\CCSCc1ccc2ccccc2n1)NS(=O)(=O)c1ccccc1 | – | – | IC50 [1]: 18.3 µM; Ki [2]: 2.12 µM; Activity [3]: 4%; increase in total ubiquitin levels (qualitative) (MM1R [4]): Active
26 | CC(C)(C)Oc1ccc(C[C@@H](NC(=O)OCC2c3ccccc3-c3ccccc32)C(=O)O)cc1 | 59 | – | –
27 | CC(Cc1ccccc1)NC(=O)C(O)C(O)C(O)C(O)CCO (centres undefined) | 36 | 6 | –
28 | CC(NC(=O)OCc1ccccc1)C(=O)NC(Cc1ccc(O)cc1)C(=O)OCc1ccccc1 (centres undefined) | 22 | – | –
29 | COC(=O)C(CC(C)C)NC(=O)C(Cc1ccc(O)cc1)N(C(=O)OCc1ccccc1)C(=O)OCc1ccccc1 (centres undefined) | 46 | – | –
30 | NC(CCC(=O)OCc1ccccc1)C(=O)OCc1ccccc1 (centres undefined) | 34 | – | –
31 | NC(Cc1c[nH]c2ccccc12)C(=O)OCc1ccccc1 (centres undefined) | 54 | – | –
32 | O=C(NCc1ccccc1)C(O)C(O)C(O)C(O)CO (centres undefined) | 15 | 2 | –
33 | O=C(O)CCCC(=O)NC1CC2c3ccccc3C1c1ccccc12 (centres undefined) | 31 | 7 | –
34 | OCC(Oc1ccccc1)C(O)C(O)C(CO)Oc1ccccc1 (centres undefined) | 5 | – | –
35 | COC(=O)[C@H](C)NC(=O)[C@H](Cc1ccccc1)NC(=O)[C@H](C)NC(=O)OCc1ccccc1 (Cbz-Ala-Phe-Ala-OMe) | 24 | – | inhibition [7]: 24%
36 | CC(O)C(C=O)NC(=O)CNC(=O)OCc1ccccc1 (stereo not drawn) (Cbz-Gly-[ξT]-aldehyde) | 23 | – | –
37 | COC(=O)[C@H](CO)NC(=O)[C@H](CC(C)C)NC(=O)[C@H](CC(C)C)NC(=O)OCc1ccccc1 (Cbz-Leu-Leu-Ser-OMe) | – | – | IC50 [1]: 16.2 µM; Ki [2]: 0.42 µM; Activity [3]: 4%; TDI [8]: Active; increase in total ubiquitin levels (qualitative) (MM1R [4]): Active
38 | COC(=O)[C@H](C)NC(=O)[C@H](CC(C)C)NC(=O)[C@H](Cc1ccccc1)NC(=O)OCc1ccccc1 (Cbz-Phe-Leu-Ala-OMe) | 22 | – | –
39 | COC(=O)[C@H](Cc1ccccc1)NC(=O)[C@H](Cc1ccccc1)NC(=O)[C@H](Cc1ccccc1)NC(=O)OCc1ccccc1 (Cbz-Phe-Phe-Phe-OMe) | – | 18 | –
40 | CC(C)CC(NC(=O)C(CO)NC(=O)OCc1ccccc1)C(=O)NC(Cc1ccc(O)cc1)C(N)=O (stereo not drawn) (Cbz-Ser-Leu-Tyr-NH2; configuration not given here) | – | 29 | IC50 [1]: 28.5 µM; Ki [2]: 2.18 µM; Activity [3]: 4%; increase in total ubiquitin levels (qualitative) (MM1R [4]): Active
41 | CC(C)C[C@H](NC(=O)[C@H](CO)NC(=O)OCc1ccccc1)C(=O)N[C@@H](Cc1ccc(O)cc1)C(=O)NN (Cbz-Ser-Leu-Tyr-NHNH2) | – | 26 | IC50 [1]: 29.8 µM; Ki [2]: 11 µM; inhibition [7]: 23%; Activity [3]: 4%; TDI [8]: Active
42 | COC(=O)[C@H](Cc1ccc(O)cc1)NC(=O)[C@H](CC(C)C)NC(=O)[C@H](CO)NC(=O)OCc1ccccc1 (Cbz-Ser-Leu-Tyr-OMe) | – | 22 | IC50 [1]: 22.3 µM; Ki [2]: 4.7 µM; Activity [3]: 4%; TDI [8]: Active; increase in total ubiquitin levels (qualitative) (MM1R [4]): Active
43 | COC(=O)[C@H](CC(C)C)NC(=O)[C@H](Cc1ccccc1)NC(=O)[C@H](CO)NC(=O)OCc1ccccc1 (Cbz-Ser-Phe-Leu-OMe) | – | – | IC50 [1]: 17.6 µM; Ki [2]: 10.3 µM; Activity [3]: 4%; TDI [8]: Active; increase in total ubiquitin levels (qualitative) (MM1R [4]): Active
44 | COC(=O)[C@H](CC(C)C)NC(=O)[C@H](CC(N)=O)NC(=O)[C@@H](NC(=O)OCc1ccccc1)C(C)C (Cbz-Val-Asn-Leu-OMe) | 15 | 32 | –
45 | O=C(NC(Cc1ccc(O)cc1)C(=O)N[C@@H](Cc1ccccc1)C(=O)O)OCc1ccccc1 (some centres undefined) (Cbz-[ξY]-Phe-OH) | 7 | – | –
46 | CC(C)C[C@@H](C=O)NC(=O)[C@H](CC(C)C)NC(=O)[C@H](CC(C)C)NC(=O)OCc1ccccc1 [MG-132] (Cbz-Leu-Leu-Leu-aldehyde) | – | – | IC50 [1]: 12.3 µM; inhibition (MM1R [9]): Active

— ChEMBL document CHEMBL3860032, “Identification of noncovalent proteasome inhibitors with high selectivity for chymotrypsin-like activity by a multistep structure-based virtual screening” (Eur J Med Chem, 2016)
